According to paper PMC9977887, “Crocodile defensin (CpoBD13) antifungal activity via pH-dependent phospholipid targeting and membrane disruption” (Nature Communications, 2023):
Read-outs that look alike come from different tables or passages of the source. Where no end group is shown, it is not given here.

What was measured:
C. albicans ATCC 10231 [1] = assay: Propidium iodide uptake assay in pH-buffered conditions (MES buffer); format: cell-based, Candida albicans; conditions: 30 min
Experimental: (§1) For fungal growth assays, overnight cultures of C. albicans ATCC 10231 cells (yeast peptone dextrose broth, 30°C, shaking at 160 rpm) were pelleted (2000 g, 5 min), washed once in 0.5× potato dextrose broth (BD Biosciences, Franklin Lakes, NJ) and finally resuspended in the same media. Cells were seeded onto a 96-well plate (400 cells, 50 µL) and treated with an equal volume of varying concentrations of defensin in 0.5× potato dextrose broth. After incubating the samples (24 h, 30 °C), the plates were shaken to distribute the cells and growth was determined by performing a 9-well scan (600 nm) using a Spectramax M5e microplate reader (Molecular Devices, San Jose, CA). For assays testing defensin salt tolerance, C. albicans cells were instead resuspended in 1x potato dextrose broth and treated with an equal volume of CpoBD13 + NaCl solution at their intended concentrations. Propidium iodide (PI) uptake assays were performed by preparing the cells as per the standard growth inhibition assay however they were instead seeded onto a U-bottom 96-well plate (50,000 cells, 25 µL). […] For PI uptake experiments performed at a specific pH, the same method was followed with the exception that cells were resuspended in 1× potato dextrose broth while defensin titrations were diluted in 40 mM MES buffer at the intended pH. An example PI uptake gating strategy is presented in Supplementary Fig. 1d.

U937 cells = assay: MTT/MTS cell viability assay; format: cell-based, human; conditions: 48 h, at the assessed concentrations
Text: (§2) Human epithelial cervical cancer (HeLa, ATCC, CCL-2), prostate cancer (PC3, ATCC, CRL-1435) and histiocytic lymphoma (U937, ATCC, CRL-1593.2) cells were obtained from the American Type Culture Collection (Gaithersburg, Maryland) and cultured in RPMI-1640 medium (Thermo Fisher Scientific, Waltham, MA) supplemented with 5–10% (v/v) foetal bovine serum (FBS), 100 U/mL penicillin and 100 U/mL streptomycin (Invitrogen, Carlsbad, CA). Adult human dermal fibroblasts (AHDF, Lonza, CC-2511) cells were obtained from Lonza (Basel, Switzerland) and cultured in Dulbecco’s Modified Eagle Medium (DMEM) (Thermo Fisher Scientific) supplemented with 10% (v/v) FBS, 100 U/mL penicillin and 100 U/mL streptomycin. Human umbilical vein epithelial (HUVEC, Lonza, CC-2519) cells were obtained from Lonza and cultured in EBM-2 medium supplemented with EGM-2 SingleQuots (Lonza). All cell lines were maintained at 37 °C in a humidified incubator with 5% CO2.
(§3) Cell viability assays were performed using MTT/MTS as previously described[8].

HeLa cells = assay: MTT/MTS cell viability assay; format: cell-based, human; conditions: 48 h, at the assessed concentrations
Text: as §2, §3

Liposome pulldown = format: binding; conditions: for Fraction of total protein (%), bound fraction: pH 5.5 (20 mM MES); for Fraction of total protein (%), bound fraction / Fraction of total protein (%), Bound: 1 µg defensin
Experimental: Liposomes were prepared using natural chicken egg L-α-phophatidylcholine and L-α-phosphatidic acid dissolved in chloroform (Avanti Polar Lipids), and liposome pulldowns (at pH 7.4) and calcein-encapsulated liposome lysis assays were performed as previously described. For liposome pulldowns performed at pH 5.5, the same protocol was used with minor variations. The desiccated lipid films were resuspended in 20 mM MES pH 7.4 and were washed in the same buffer during the centrifugation process. After the final wash step, the liposome pellets were resuspended in 20 mM MES pH 5.5 and incubated with CpoBD13 or mutants thereof (also prepared in the same acidic buffer).

C. albicans ATCC 10231 [2] = assay: Fungal growth inhibition assay; format: cell-based, Candida albicans
Experimental: as §1

C. albicans ATCC 10231 [3] = assay: Fungal growth inhibition assay, salt tolerance (NaCl); format: cell-based, Candida albicans; conditions: NaCl concentrations of 100 mM; 24 h
Experimental: as §1

[4] = PC only liposomes, pH 7.4, replicate 1
[5] = PC only liposomes, pH 7.4, replicate 2
[6] = PC only liposomes, pH 7.4, replicate 3
[7] = PC:PA 95:5 liposomes, pH 7.4, replicate 1
[8] = PC:PA 95:5 liposomes, pH 7.4, replicate 2
[9] = PC:PA 95:5 liposomes, pH 7.4, replicate 3

Text for AHDF cells: as §2, §3
Text for HUVEC cells: as §2, §3

CpoBD13: saltwater crocodile β-defensin 13, histidine-rich, three disulphide bonds, recombinantly expressed in Pichia pastoris (NGSYYSTLQCRNNHGHCRRLCFHGEQWIGNCNGRHQHCCK; disulfide (positions not given here); also: three disulphide bonds, pairings not given here)
membrane permeabilising activity (C. albicans ATCC 10231 [1]; pH 5.5): highly effective
membrane permeabilising activity (C. albicans ATCC 10231 [1]; pH 6.5): significantly reduced
membrane permeabilising activity (C. albicans ATCC 10231 [1]; pH 7.5): most dramatic loss of activity
effect on cell viability (AHDF cells): did not affect the viability
effect on cell viability (U937 cells): did not affect the viability
effect on cell viability (HeLa cells): did not affect the viability
Fraction of total protein (%), bound fraction (Liposome pulldown; PC only liposomes, replicate 1): 18.4161%
Fraction of total protein (%), bound fraction (Liposome pulldown; PC only liposomes, replicate 2): 18.4773%
Fraction of total protein (%), bound fraction (Liposome pulldown; PC only liposomes, replicate 3): 29.8053%
Fraction of total protein (%), Bound (Liposome pulldown; [4]): 12.3509%
Fraction of total protein (%), Bound (Liposome pulldown; [5]): 1.776%
Fraction of total protein (%), Bound (Liposome pulldown; [6]): 33.499%
Fraction of total protein (%), Unbound (Liposome pulldown; [4]): 82.3399%
Fraction of total protein (%), Unbound (Liposome pulldown; [5]): 73.2719%
Fraction of total protein (%), Unbound (Liposome pulldown; [6]): 23.4493%
binding to PA-enriched liposomes (Liposome pulldown; PC:PA 95:5, pH 7.4): preferentially bound
Fraction of total protein (%), bound fraction (Liposome pulldown; PC:PA 95:5 liposomes, replicate 1): 88.2406%
Fraction of total protein (%), bound fraction (Liposome pulldown; PC:PA 95:5 liposomes, replicate 2): 92.9019%
Fraction of total protein (%), bound fraction (Liposome pulldown; PC:PA 95:5 liposomes, replicate 3): 89.3441%
Fraction of total protein (%), Bound (Liposome pulldown; [7]): 40.526%
Fraction of total protein (%), Bound (Liposome pulldown; [8]): 42.0716%
Fraction of total protein (%), Bound (Liposome pulldown; [9]): 52.0773%
Fraction of total protein (%), Unbound (Liposome pulldown; [7]): 36.1151%
Fraction of total protein (%), Unbound (Liposome pulldown; [8]): 13.782%
Fraction of total protein (%), Unbound (Liposome pulldown; [9]): 17.5375%
binding to PC only liposomes (Liposome pulldown; pH 7.4): negligible binding
IC50 (C. albicans ATCC 10231 [2]; 24 h, Replicate 1, unit not in table, µM, read-out: IC50): 4.19 µM
IC50 (C. albicans ATCC 10231 [2]; 24 h, Replicate 2, unit not in table, µM, read-out: IC50): 4.11 µM
IC50 (C. albicans ATCC 10231 [2]; 24 h, Replicate 3, unit not in table, µM, read-out: IC50): 4.1 µM
IC50 (C. albicans ATCC 10231 [2]; 24 h, mean, n = 3, assessed range 0–10 µM, read-out: IC50 of fungal growth inhibition): 4.1 µM
IC50 (C. albicans ATCC 10231 [2]; Replicate 1, read-out: IC50): 5.39 µM
IC50 (C. albicans ATCC 10231 [2]; Replicate 2, read-out: IC50): 5.34 µM
IC50 (C. albicans ATCC 10231 [2]; Replicate 3, read-out: IC50): 5.46 µM
antifungal activity in NaCl (C. albicans ATCC 10231 [3]): retained antifungal activity
effect on cell viability (HUVEC cells): did not affect the viability
